Experimental data taken from patent US20030104603A1, “Protein” (priority 2001, published 2003).

Test system: mouse EST cluster TC20248 (CitE homolog gene) in white adipose tissue
Assay: Affymetrix GeneChip analysis of white adipose tissue mRNA from β3-agonist treated mice
Assay type: in vivo
Conditions: male C57B1/6J mice, CL 316,243 1 mg/kg injected every 12 h, 2 doses, white adipose tissue collected at 24 h, versus saline control, Mu19K GeneChips
Protocol: Male C57B1/6J mice, 12 weeks old, were housed under conditions of ambient temperature and free access to water and chow. Either the β3-selective agonist CL 316,243 (1mg/kg) or saline was injected every 12h with 2 doses during a total period of 24 hours. The animals were decapitated 24 h after the experiment was started, and the white adipose tissue was quickly collected and immediately frozen into liquid nitrogen.
PolyA^+ mRNAs were extracted from white adipose tissue from control and β3-agonist treated mice respectively. They were reverse transcribed using a T7-tagged oligo-dT primer and double-stranded cDNAs were generated. These cDNAs were then amplified and labeled using In vitro transcription (IVT) with T7 RNA polymerase and biotinylated nucleotides. The populations of cRNAs obtained after IVT were purified and fragmented by heat to produce a distribution of RNA fragment sizes from approximately 35 to 200 bases. […] The cartridges were scanned using a Hewlett-Packard confocal scanner and the images were analyzed with the GeneChip 3.1 software (Affymetrix). The identity of the genes represented on the Affymetrix GeneChips was assessed by performing searches using BLAST (Altschul et al., J. Molec. Biol., 1990, 215, 403-410), which is incorporated herein by reference in its entirety) on available protein sequence databanks. […]

C[C@H](Cc1ccc2c(c1)OC(C(=O)[O-])(C(=O)[O-])O2)NC[C@H](O)c1cccc(Cl)c1.[Na+].[Na+] [CL 316,243]
transcriptional change of the CitE homolog gene (TIGR Mouse Gene Index TC20248): down-regulated | transcriptional change of the CitE homolog gene (TIGR Mouse Gene Index TC20248) (listed as β3-agonist): downregulated by a factor of two
